Measured values reported in patent US10130713B2, “Cocrystalline DHEA formulations” (University of Houston System, priority 2013, dated 2018).
In brackets after ≈: the same amount, converted by molar mass. Like-named read-outs stand apart in the source and are kept apart here.

How the values were obtained:
Type in all cases: physicochemical
[1] = Dissolution study with DHEA concentration measured by HPLC over time; settings: for solubility: aqueous dissolution study (pH 6.8 buffer, ambient temperature)
Description: High performance liquid chromatography (HPLC) analyses were carried out on an Agilent 1100 series instrument equipped with a UV detector using the following materials and operating parameters:
Calibration data used previously and standards analyzed prior to the samples were used to generate concentrations from peak areas.
At selected time points (10 minutes, 30 minutes, 1 hour, 2 hours, and 5 hours) the slurry was centrifuged and 700 μL of the liquid phase was withdrawn and passed through a 0.5 μm PTFE filter. The filtrate was concentrated in a purge of dry air until all the water evaporated, leaving a solid that was analyzed by HPLC. […] The pH of the filtrate was measured using a Thermo Scientific Orion 3 Star pH meter. The collected solid was analyzed by XRPD. […]
Further dissolution studies with concentration measurements at 10 minutes, 30 minutes, 1 hour, 2 hours, 5 hours, and overnight were conducted. Three such experiments were carried out, using DHEA polymorph form I (FI), the DHEA/D-fructose cocrystal, and the DHEA/glutaric acid cocrystal. […] All of the data are summarized in FIG. 10 through FIG. 14 and the data are plotted in FIG. 15 through FIG. 19.
Note that in each of the plots shown in […] the results of two experiments (time points at <10 min and time points at >10 minutes) are shown on one graph. In order to better visualize the curves, the x axes are in logarithmic scales (FIGS. 15-17). The tables shown in FIGS. 12 and 13 were derived from single experiments having time points at <10 minutes. The x axes on those plots are in linear scales (FIGS. 18 and 19).

[2] = Slurry of DHEA in simulated intestinal fluid, solid form by XRPD; settings: about 3 hrs at room temperature, XRPD 3171
[3] = Dissolution of formulation slurries (Plasdone S630 + Polysorbate 80) in simulated intestinal fluid; settings: simulated intestinal fluid plus aqueous formulation slurry, aqueous with cosolvent or surfactant or cyclodextrin, thermodynamic from solid; SIF plus water containing 2% Plasdone S630 and 1% Polysorbate 80, 37° C.; read-out: equilibrium solubility in formulation/SIF system
Description: Simulated intestinal fluid (SIF) was prepared by dissolving 21.6 mg of sodium hydroxide, 168.8 mg of sodium dihydrogen phosphate dihydrate, 311.6 mg of sodium chloride, and 113.0 mg of SIF Powder Original (Biorelevant) in 50 mL of water. A 100-mL, round-bottom flask was charged with 10 mL of SIF and a stir bar. The flask was placed in a 37° C. bath and stirring was begun. A 20-mL vial was charged with 10 mL of water and placed in a 37° C. bath.
Based on the inhibitory effects found in the excipient screen, further studies with formulation slurries containing the cocrystals suspended in water were used, in which both Plasdone S-630 and Polysorbate 80 are dissolved. The formulation recipe and dissolution procedure are: bring 5 mL of simulated intestinal fluid (SIF) to 37° C., add about 6 mg of a cocrystal into 5 mL of water (at 37° C.) containing 2% Plasdone S630 and 1% Polysorbate 80 to give the formulation slurry, add the formulation slurry to the SIF, pull samples, filter, and analyze by HPLC. A control experiment was carried out in which DHEA was used instead of a cocrystal.
For FIGS. 44 and 45, to the […]-vial of SIF (20-mL vial was charged with 10 mL of water and placed in a 37° C. bath) 12.1 mg of DHEA (from sample TL876) was added. The vial was capped and shaken, and the resulting slurry was poured into the round-bottom flask. […] The supernatants were analyzed by HPLC. […]

**Q.** What does the source list for C[C@]12CC[C@H](O)CC1=CC[C@@H]1[C@@H]2CC[C@]2(C)C(=O)CC[C@@H]12 [DHEA polymorph form I (FI), Dehydroepiandrosterone]?
**A.** change in concentration of DHEA with time ([1]; 10 minutes, 30 minutes, 1 hour, 2 hours, 5 hours, overnight): no change in concentration of DHEA with time; remaining solids after dissolution experiment ([1]; after overnight experiment): DHEA form S2 (monohydrate); time for transformation of anhydrate to monohydrate to be complete ([1]; aqueous dissolution study): about 2 hours; solubility ([1]; pH 6.8 phosphate buffer, pH 6.8, aqueous buffer, thermodynamic from solid, read-out: solubility): ~0.03 mg/mL (≈ 104 µM); solid form after slurrying in SIF [2]: mostly the hydrate S1 form

**Q.** What does the source list for C[C@]12CC[C@H](O)CC1=CC[C@@H]1[C@@H]2CC[C@]2(C)C(=O)CC[C@@H]12 [DHEA hydrate S1, Dehydroepiandrosterone]?
**A.** solubility ([1]; listed as DHEA (form S1)): about 17 μg/mL; solubility thermodynamic ([1]; pH 6.8 phosphate buffer, pH 6.8, aqueous buffer, thermodynamic from solid, most stable form in the presence of water, read-out: equilibrium solubility): 0.017 mg/mL

**Q.** With C[C@]12CC[C@H](O)CC1=CC[C@@H]1[C@@H]2CC[C@]2(C)C(=O)CC[C@@H]12 [DHEA, Dehydroepiandrosterone] as the compound, how does the solubility thermodynamic [3] read?
**A.** Its solubility thermodynamic is 0.12 to 0.13 mg/mL.
